Patent US20210300894A1, “CRYSTALLINE FORM OF N-[1-(5-CYANO-PYRIDIN-2-YLMETHYL)-1 H-PYRAZOL-3-YL]-2-[4-(1-TRIFLUO-ROMETHYL-CYCLOPROPYL)-PHENYL]-ACETAMIDE” (IDORSIA PHARMACEUTICALS LTD, priority 2017, published 2021)

Test: Gravimetric vapour sorption (GVS) analysis, moisture sorption at 25° C.
Type: physicochemical
Details: stepping mode in steps of 5% RH, classification according to Ph. Eur.
Description: Gravimetric Vapour Sorption (GVS) Analysis
Measurements were performed on an IGASORP Model HAS-036-080 moisture sorption instrument (Hiden Isochema, Warrington, UK) operated in stepping mode at 25° C. The sample was allowed to equilibrate at the starting relative humidity (RH) before starting a pre-defined humidity program in steps of 5% ARH and with a maximal equilibration time of 24 hours per step. About 20 to 30 mg of each sample was used.

With `N#Cc1ccc(Cn2ccc(NC(=O)Cc3ccc(C4(C(F)(F)F)CC4)cc3)n2)nc1` [COMPOUND in crystalline form 1, N-[1-(5-cyano-pyridin-2-ylmethyl)-1H-pyrazol-3-yl]-2-[4-(1-trifluoromethyl-cyclopropyl)-phenyl]-acetamide] the “Moisture sorption at 25° C. (GVS), hygroscopicity according to Ph. Eur.” value was “not hygroscopic according to Ph. Eur”.
